Results as given in paper PMC7814043, “Pan RAS-binding compounds selected from a chemical library by inhibiting interaction between RAS and a reduced affinity intracellular antibody” (Scientific Reports, 2021).

Experiments:
[1] = molecular target: T1, non-mutated anti-RAS scFv / HRAS^G12V interaction (Homo sapiens, UniProt P01112, G12V); assay: Alpha assay of non-mutated anti-RAS scFv with HRAS^G12V (identical protocol, unpublished data); assay type: biochemical
T1 construct: made in house; host or cells: E. coli C41(DE3)
Text: We have used the RAS protein as a target for this method as this was previously regarded as undruggable[9]–[11]. We provide further evidence of RAS druggability and that antibody binding sites can be employed to select small molecules for drug discovery as starting chemical matter for medicinal chemistry drug development campaigns. Compound A (Fig. 3A) is a heterocycle that would require crystal soaking to facilitate structure-based drug design to place this on a formal drug development programme. […] Further, the low Kd in SPR (Fig. 4), lack of inhibitory effect in Alpha controls (Fig. 3) argue against chemical reactivity as the reason for the Alpha assay inhibition. […] The low binding strength of these initial library hits, in turn resulting from the small size of the chemical library used, would preclude meaningful cell-assays at this stage.

[2] = molecular target: T2, HRAS^G12V-GTP / scFv RASdm interaction (Homo sapiens, UniProt P01112, G12V); assay: AlphaScreen of interaction between GST-HRAS^G12V-GTPγS and His-tagged scFv RASdm; assay type: biochemical; conditions: dose-response Alpha assay
T2 construct: made in house; host or cells: E. coli C41(DE3)
Text: An AlphaScreen assay was established with GST-HRAS^G12V-GTP bound to GST-beads and HIS-tagged scFv RASdm bound to nickel-beads. The Alpha assay comprised interaction of anti-RAS and HRAS proteins and signal from the acceptor beads generated after excitation of the donor nickel-beads (depicted in Supplementary Fig. 3A). […] The interactions were optimized for protein concentrations linked to the donor and acceptor beads (Supplementary Fig. 3C,D). The interaction of HRAS^G12V-GTP with the dematured anti-RAS scFv was robust (Supplementary Fig. 3D) yielding Z factors of 0.74–0.85 being considered suitable for high throughput screen. […]
The AlphaScreen assay (Perkin Elmer) was performed in a 8 μl final volume in 1536-well white microtiter plates (Greiner). […] Exposure of the reaction to direct light was avoided and the emission of light from the acceptor beads was measured in the EnVision plate reader (Perkin Elmer) and analyzed using the EnVision manager software. […]
Panel A: AlphaLISA glutathione (GSH) acceptor beads were used to capture GST-HRAS loaded with GTPγS (Ag). […] Following incubation, nickel (Ni) chelate donor AlphaLISA beads were added and the chemiluminescence signal detected on an PE Envision plate reader. […]

[3] = tested on: KRAS, HRAS and NRAS-GTP proteins; assay: SPR over the three RAS isoforms (average / overall)
Protocol: Accordingly, we used SPR to determine direct RAS-binding and because the anti-RAS intracellular antibody interacts with the three isoforms of activated RAS[3], we assessed if the compounds also show a pan-RAS binding.
The protein extracts were loaded with GPPNHP (a non-hydrolysable GTP analogue) as described[19] and biotinylated by incubation with BirA overnight at 4 °C. […] SPR experiments were performed using BIAcore T100 (GE Healthcare). […] The chip was prepared with 3 × 30 s injections of 1 M NaCl/50 mM NaOH at 10 µL/min flow rate, before biotinylated RAS proteins were injected at 25 µg/mL with 10 µL/min flow rate until 4000–5000 RU protein was captured.

KRAS^G12V-GPPNHP = KRAS^G12V-GPPNHP (Homo sapiens, UniProt P01116, G12V); assay: SPR of compound on biotinylated RAS isoform (streptavidin chip); assay type: binding
NRAS-GPPNHP = NRAS-GPPNHP (Homo sapiens, UniProt P01111); assay: as above; assay type: binding
dopamine D1 receptor = conditions: cited from earlier work
HRAS-GPPNHP = HRAS-GPPNHP (Homo sapiens, UniProt P01112); assay: SPR of compound on biotinylated RAS isoform (streptavidin chip); assay type: binding
HRAS-GPPNHP, sequence (P01112 1-166): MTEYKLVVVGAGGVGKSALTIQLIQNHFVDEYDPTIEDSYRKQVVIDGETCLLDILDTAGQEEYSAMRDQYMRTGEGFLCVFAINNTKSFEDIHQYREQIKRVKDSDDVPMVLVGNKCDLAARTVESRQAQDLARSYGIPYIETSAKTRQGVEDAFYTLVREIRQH

NRAS-GPPNHP, sequence (P01111 1-166): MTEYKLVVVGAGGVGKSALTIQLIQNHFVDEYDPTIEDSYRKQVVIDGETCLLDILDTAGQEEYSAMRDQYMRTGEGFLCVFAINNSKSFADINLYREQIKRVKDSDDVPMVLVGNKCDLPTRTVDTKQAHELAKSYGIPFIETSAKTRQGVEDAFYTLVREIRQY
T2 sequence (P01112 whole entry G12V): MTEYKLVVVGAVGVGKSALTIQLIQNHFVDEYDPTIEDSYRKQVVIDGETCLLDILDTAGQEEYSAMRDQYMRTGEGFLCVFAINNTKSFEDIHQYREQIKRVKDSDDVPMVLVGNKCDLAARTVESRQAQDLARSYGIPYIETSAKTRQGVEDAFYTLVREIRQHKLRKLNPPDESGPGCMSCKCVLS
T1 sequence (P01112 whole entry G12V): as above

SMILES | inhibition of interaction between non-mutated anti-RAS scFv and HRAS^G12V [1] | IC50 [2] [µM] | response in SPR analysis ([3]; KRAS, HRAS and NRAS proteins) | Kd ([3]; read-out: average Kd, average over KRAS, HRAS and NRAS) [µM] | Rmax (KRAS^G12V-GPPNHP; Figure 4D) [RU] | Kd (KRAS^G12V-GPPNHP; KRAS) [µM] | Rmax (NRAS-GPPNHP; Figure 4F) [RU] | Kd (NRAS-GPPNHP; NRAS) [µM] | dopamine D1 receptor activity (dopamine D1 receptor) | Rmax (HRAS-GPPNHP; Figure 4E) [RU] | Kd (HRAS-GPPNHP; HRAS) [µM]
CCCn1c(=O)c2[nH]c(C3CCCC3)nc2n(CCCOC(=O)c2ccc(S(=O)(=O)F)cc2)c1=O [Compound A, 8-Cyclopentyl-3-(3-((4-(fluorosulfonyl)benzoyl)oxy)propyl)-1-propylxanthine] | no inhibition | 2 |  |  |  |  |  |  |  |  | 
CN1Cc2ccccc2C2c3cccc4[nH]cc(c34)CC21 (stereo not drawn) [compound B, 4,6,6a,7,8,12b-hexahydro-7-methylindolo(4,3-ab)-phenanthridine] |  | 6 | low response | 37 | 6.7 | 47 | 6.8 | 35 | weak dopamine D1 receptor agonist | 3.5 | 30
